In patent publication EP0687258B1, “SUBSTITUTED IMINOACETONITRILES WITH MYOCARDIAL PROTECTIVE EFFECT” (HOECHST AKTIENGESELLSCHAFT, priority 1993, dated 1994):

System: isoliert perfundierten Rattenherzens
Test: Isolated perfused rat heart (Langendorff), anoxia/reoxygenation, release of lactate dehydrogenase into the perfusate
Set-up: species or system Wistarratten
Conditions: for Freisetzung von Laktatdehydrogenase (großer initialer Enzymverlust) während der Reoxygenationsphase: closed circles, n = 4 hearts; for Enzymverlust nach anschließendem Auswaschen der Substanz: open circles
Description: Die pharmakologische Wirkung der erfindungsgemäßen Verbindungen der allgemeinen Formel I sowie des N-Morpholino-iminoacetonitrils wurden am Modell des isoliert perfundierten Rattenherzens untersucht.
Dazu wurden Herzen von 200 - 250 g schweren Wistarratten in einer temperaturkontrollierten Kammer (37°C) an ein Langendorff-Perfusionssystem gehängt. Die Kammer war während normoxischer Perfusionen mit Luft, während anoxischer mit 95 % N2 plus 5 % CO2 gefüllt. […] Für eine initiale Stabilisierungsperiode von 30 min wurden die Herzen mit einem oxygenierten salinen Medium perfundiert (Zusammensetzung in mM: 140.0 NaCl, 24.0 NaHCO3, 2.7 KCl, 0.4 NaH2PO4, 1.0 MgCl2, 1.8 CaCl2, 5.0 Glucose, äquilibriert mit 95 % O2 und 5 % CO2, pH 7.4). Für anoxische Perfusionen wurde diese initiale normoxische Stabilisierungsperiode gefolgt von 60 min Perfusion, mit einem Fluß von 5 ml/min von anoxoischem Medium (Zusammensetzung wie zuvor, aber ohne Glucose und äquilibriert mit 95 % N2 und 5 % CO2, pH 7.4). Die anoxisch perfundierten Herzen wurden nachfolgend durch Zurückschalten auf die initialen normoxischen Perfusionsbedingungen reoxygeniert.
In Versuchen mit den Testsubstanzen wurden diese dem anoxischen Perfusat während der letzten 15 min zugefügt. Die ersten 60 min der Reoxygenationsphase wurden ebenfalls in Gegenwart der Testsubstanzen durchgeführt. Danach wurde ohne diese Substanzen die normoxische Perfusion für weitere 45 min fortgesetzt.
Die Herzschädigung wurde charakterisiert durch die Freisetzung des zytosolischen Enzyms Laktatdehydrogenase (LDH) in das Perfusat. Während der Herzperfusion wurden 1-minütige Sammelproben des Effluats gesammelt. Die Aktivität von LDH wurde auch in Homogenaten ganzer Rattenherzen gemessen (präpariert in 100 mM Phosphatpuffer, pH 7.4, mit 1 % Triton X-100). […] Der Enzymverlust wurde in Prozenten der initialen Gesamtgewebsaktivitäten angegeben.

Row | Wirksamkeit im Vergleich zu BDM (relative to BDM (10 mM vs 20 mM)) | Freisetzung von Laktatdehydrogenase (großer initialer Enzymverlust) während der Reoxygenationsphase (reoxygenation after 60 min anoxia in presence of 10 mM test substance, Abbildung 1 B) | reoxygenationsbedingte Myokardschädigung (summary of the results shown) | SMILES | Enzymverlust nach anschließendem Auswaschen der Substanz (washout after reoxygenation in presence of 10 mM test substance, Abbildung 1 B) | Freisetzung von Laktatdehydrogenase (großer initialer Enzymverlust) während der Reoxygenationsphase (reoxygenation after 60 min anoxia in presence of 20 mM test substance, Abbildung 1 C) | Enzymverlust nach anschließendem Auswaschen der Substanz (washout after reoxygenation in presence of 20 mM test substance, Abbildung 1 C)
1 | etwa doppelt so hoch wie die von BDM | weitgehend unterdrückt | deutlich reduziert | N#CC=NN1CCOCC1 [N-Morpholino-iminoacetonitril] | keiner weiteren Steigerung des Enzymverlusts | – | –
2 | – | – | – | CC(=O)C(C)=NO [Butandionmonoxim, reference compound] | – | weitgehend unterdrückt | geringen initialen Steigerung des Enzymverlustes
